Test results from patent US20220055997A1, “ANTIMICROBIAL COMPOUNDS AND COMPOSITIONS COMPRISING SAME” (B.G. NEGEV TECHNOLOGIES AND APPLICATIONS LTD., AT …, priority 2019, published 2022).

How the values were obtained:
[1] = tested on: 29mer RNA SEQ ID NO: 1, hairpin 91 of M. tuberculosis PTC; assay: T2 relaxation (CPMG) NMR fragment screen; type: binding
M. smegmatis ribosomes = assay: bacterial coupled transcription/translation assay, luciferase reporter (in vitro translation); type: biochemical; details: for inhibition of translation of a reporter gene by Mtb ribosomes in vitro / inhibition of luciferase activity compared with chloramphenicol / IC50: FIG. 4; for inhibition of translation of a reporter gene by Mtb ribosomes in vitro: dose-dependent; for inhibition of luciferase activity compared with chloramphenicol: luciferase activity vs compound concentration; for IC50: protein synthesis by in vitro translation reaction, M. smegmatis ribosomes

**Q.** For `CNCc1ccc(-c2nccs2)cc1` [N-methyl-4-(1,3-thiazol-2-yl)benzylamine], which “hit in T2-edited (CPMG NMR) mini-screen” value ([1]; pool number 2 of three pools of 10 fragments, with and without target RNA, FIG. 3) is on record?
**A.** hits

**Q.** With `Cc1nc(CN2CCN(Cc3csc(-c4ccccc4)n3)CC2)cs1` [Compound Nr. 2, 1-[(2-methylthiazol-4-yl)methyl]-4-[(2-phenylthiazol-4-yl)methyl]piperazine] as the molecule, how does the “inhibition of translation of a reporter gene by Mtb ribosomes in vitro” value (M. smegmatis ribosomes) read?
**A.** inhibit translation of a reporter gene

**Q.** And the “inhibition activity compared among compounds” value (M. smegmatis ribosomes; Nr. 2 compared to compounds Nr. 3, 4 and 5, data not shown)?
**A.** higher inhibition activity

**Q.** What about the “inhibition of luciferase activity compared with chloramphenicol” value (M. smegmatis ribosomes) of the same molecule?
**A.** as effective inhibitor of luciferase activity as chloramphenicol

**Q.** What about the IC50 (M. smegmatis ribosomes) of the same molecule?
**A.** 8.9 µM

**Q.** Which IC50 (M. smegmatis ribosomes) does the source give for `O=C(N[C@H](CO)[C@H](O)c1ccc([N+](=O)[O-])cc1)C(Cl)Cl` [chloramphenicol, reference compound] here?
**A.** 9.2 µM

**Q.** `NCc1csc(-c2cccc(Cl)c2)n1` [[2-(3-chlorophenyl)-1,3-thiazol-4-yl]methanamine] was tested. Which “change in T2 upon addition of RNA” value ([1]; pool 81, peaks 1-3, 1D CPMG spectra, FIG. 7A) did it give?
**A.** largest change in T2

**Q.** What does the source list for `CCN1CCN(Cc2csc(-c3ccccc3)n2)CC1` [Compound Nr. 8, 1-ethyl-4-[(2-phenylthiazol-4-yl)methyl]piperazine]?
**A.** inhibition of translation of a reporter gene by Mtb ribosomes in vitro (M. smegmatis ribosomes): inhibit translation of a reporter gene; inhibition of luciferase activity compared with chloramphenicol (M. smegmatis ribosomes): about twice as better than both; IC50 (M. smegmatis ribosomes): 4.8 µM
